Reference: patent US8642063B2, “Implantable medical device coatings with biodegradable elastomer and releasable taxane agent” (priority 2008, dated 2014)

Assay: Solubility / elution of paclitaxel solid forms in porcine serum
Assay type: physicochemical
Details: 37° C.
Text: For example, amorphous and dihydrate taxane solid forms may be readily identified and differentiated by visual appearance and elution rates. […] In addition, the presence of different solid forms of the taxane agent in a medical device coating can be identified and quantified by contacting the coating with an elution medium that selectively dissolves one solid form more readily than a second solid form. In solution with an elution medium, such as porcine serum or blood, the presence of the taxane agent can be identified, for example by using ultraviolet (UV) spectroscopy or high pressure liquid chromatography (HPLC). […] Non-solvated solid forms include amorphous or anhydrous solid forms.
The amount of taxane agent released from coating into the elution medium, and the rate of release of the taxane agent from a coating, can be measured by any suitable method that allows for measurement of the release of the taxane agent with a desired level of accuracy and precision. The taxane agent in the coating can be determined by dissolving the coating in a suitable elution medium and subsequently detecting the amount of taxane agent in the elution medium. The taxane agent dissolved in the elution medium can be detected using any suitable technique. […] This correlation involves the linear relationship between optical density (absorbance) and concentration of an absorbing species. […]

CC(=O)O[C@H]1C(=O)[C@@]2(C)[C@H]([C@H](OC(=O)c3ccccc3)[C@]3(O)C[C@H](OC(=O)[C@H](O)[C@@H](NC(=O)c4ccccc4)c4ccccc4)C(C)=C1C3(C)C)[C@]1(OC(C)=O)CO[C@@H]1C[C@@H]2O [dihydrate paclitaxel, paclitaxel]
solubility after 24 hours in porcine serum: less than 40 wt %
